Experimental data taken from ChEMBL document CHEMBL1151073, “Substituted 1,3,5-triazines as cholesteryl ester transfer protein inhibitors” (Bioorg Med Chem Lett, 1996).

The compounds below were run against T1, Cholesteryl ester transfer protein (Homo sapiens, UniProt P11597) (assay: Inhibition of Cholesteryl ester transfer protein).
T1 sequence (P11597 whole entry): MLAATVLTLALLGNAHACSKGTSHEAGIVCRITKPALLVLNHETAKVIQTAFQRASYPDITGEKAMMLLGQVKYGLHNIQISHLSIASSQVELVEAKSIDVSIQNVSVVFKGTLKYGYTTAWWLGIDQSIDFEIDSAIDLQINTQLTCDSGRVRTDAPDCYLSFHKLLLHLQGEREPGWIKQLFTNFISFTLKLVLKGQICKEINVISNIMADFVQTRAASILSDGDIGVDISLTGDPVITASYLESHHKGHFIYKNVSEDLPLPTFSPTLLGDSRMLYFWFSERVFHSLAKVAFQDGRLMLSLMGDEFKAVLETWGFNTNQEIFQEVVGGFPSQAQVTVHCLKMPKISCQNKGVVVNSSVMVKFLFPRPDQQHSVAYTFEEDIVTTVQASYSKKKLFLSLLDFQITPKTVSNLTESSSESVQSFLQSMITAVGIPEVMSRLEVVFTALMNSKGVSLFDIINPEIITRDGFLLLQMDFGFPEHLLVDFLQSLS

IC50 [µM] | Structure (SMILES)
11 | CCCCc1nc(N2CCNCC2)nc(N2CCN(c3ccc(Cl)cc3)CC2)n1
21 | Oc1ccc(CCNc2nc(N3CCNCC3)nc(N3CCN(c4ccc(Cl)cc4)CC3)n2)cc1O
6 | CN(CCc1ccccc1)c1nc(N2CCNCC2)nc(N2CCN(c3ccc(Cl)cc3)CC2)n1
5 | Clc1ccc(N2CCN(c3nc(Cc4ccc5ccccc5c4)nc(N4CCNCC4)n3)CC2)cc1
11 | Clc1ccc(N2CCN(c3nc(-c4ccccc4)nc(N4CCNCC4)n3)CC2)cc1
12 | Clc1ccc(N2CCN(c3nc(C#Cc4ccccc4)nc(N4CCNCC4)n3)CC2)cc1
9 | Clc1ccc(N2CCN(c3nc(Cc4ccccc4)nc(N4CCNCC4)n3)CC2)cc1
45 | Clc1ccc(N2CCN(c3nc(NCCc4ccccc4)nc(N4CCNCC4)n3)CC2)cc1
5 | Clc1ccc(N2CCN(c3nc(N4CCNCC4)nc(N4CCc5ccccc5C4)n3)CC2)cc1
16 | COc1ccc(CCNc2nc(N3CCNCC3)nc(N3CCN(c4ccc(Cl)cc4)CC3)n2)cc1O
10 | Clc1ccc(N2CCN(c3nc(N/N=C/c4ccccc4)nc(N4CCNCC4)n3)CC2)cc1
9 | Clc1ccc(Cc2nc(N3CCNCC3)nc(N3CCN(c4ccc(Cl)cc4)CC3)n2)cc1

These compounds were tested against T2, Cholesteryl ester transfer protein (Homo sapiens) (UniProt P11597) (assay: Compound was tested for inhibitory activity against Cholesteryl ester transfer protein at 50 uM).
T2 sequence (whole entry): T1 sequence (P11597 whole entry)

inhibition [%] | Structure (SMILES)
52 | Clc1ccc(N2CCN(c3nc(NCc4ccccc4)nc(N4CCNCC4)n3)CC2)cc1
57 | CCCCOc1nc(N2CCNCC2)nc(N2CCN(c3ccc(Cl)cc3)CC2)n1
48 | C=Cc1nc(N2CCNCC2)nc(N2CCN(c3ccc(Cl)cc3)CC2)n1
37 | Clc1ccc(N2CCN(c3nc(Cl)nc(N4CCNCC4)n3)CC2)cc1
66 | Clc1ccc(N2CCN(c3nc(OCCc4ccccc4)nc(N4CCNCC4)n3)CC2)cc1
11 | Oc1nc(N2CCNCC2)nc(N2CCN(c3ccc(Cl)cc3)CC2)n1
14 | Clc1ccc(N2CCN(c3ncnc(N4CCNCC4)n3)CC2)cc1
